Laboratory results published in patent US20060063764A1, “Insect repellents” (Givaudan SA, priority 2002, published 2006).
Values joined by “and” are separate entries in the source; they are usually repeats but may differ in a detail not shown here. Equal values may be shown once.

Tested on: German cockroaches (Blatella Germanica)
Test: Cockroach repellency on partially treated melamine-formaldehyde laminate surface (harbourage choice test)
Assay type: in vivo
Details: 20 mg/m^2; for Percentage Present on treated section, Average / Percentage Present on untreated section, Average: Average of days 1, 2, 3; for Number of Cockroaches present, Treated Section / Number of Cockroaches present, Untreated Section / Number of Cockroaches, Dead: single replicate, n = 20; for Number of Cockroaches present, Treated Section, Total of 4 replicates / Number of Cockroaches present, Untreated Section, Total of 4 replicates / Number of Cockroaches, Dead, Total of 4 replicates: total of 80
Procedure: The effectiveness of compounds of formula I as insect repellents is determined using German cockroaches exposed to a melamine-formaldehyde laminate surface partially treated/partially untreated with a test compound of formula I.
The study was conducted in an air-conditioned laboratory at a temperature of 22°±2° ° C. under a normal day/night cycle, using German cockroaches (Blatella Germanica) of mixed sex and age. The study was conducted over a 3 day period and the repellent effectiveness was assessed 1, 2 and 3 days after cockroach introduction.
One half of a rectangle of laminate 40 cm×30 cm was treated at 20 mg/m^2 of a test compound of formula I. This was achieved by soaking a paper wipe (“Rag on a Roll” ca 20 cm×20 cm) in a solution of the test compound in ethanol, squeezing out the excess liquid and wiping over the surface to give the required coverage. This was checked by weighing the cloth after application. The surface was allowed to dry. The other half of the rectangle was wiped with ethanol alone (untreated surface).
The treated laminate rectangle was placed on the bench and a plastic container was placed on the rectangle. This had been treated with “Fluon” (trade mark), a sprayable fluoropolymer, to prevent cockroach escape.
Two sheets of laminate (10 cm×10 cm) were placed on the laminate, one on the treated surface and one on the untreated surface. This acted as a cockroach harbourage. The laminate sheet to be used in the treated section was treated at the same rate as the treated laminate. The laminate was placed on two 1 cm high bottle tops to allow cockroaches access under the laminate.
20 German cockroaches were added (5 adults and 15 nymphs) to the centre of the laminate. No food and water was supplied for these cockroaches.
At 1, 2 and 3 days after cockroach introduction the number of cockroaches under each harbourage was counted. After each count the harbourage position was changed to avoid the possibility of habituation to one location, the harbourages were replaced and new cockroaches were added to replace any dead cockroaches.
The above was repeated 3 times to provide a total of 4 replicates.
The methodology of Example 2 was repeated for all of the compounds set forth in Example 1.

[1] = 1 day after cockroach introduction
[2] = 2 days after cockroach introduction
[3] = 3 days after cockroach introduction

With `CCN(CC)C(=O)O[C@@H]1C[C@H](C)CC[C@H]1C(C)C` the “Percentage Present on treated section” value (1 day after treatment) was 7.6%, the “Percentage Present on untreated section” value (1 day after treatment) was 92.4% and the “Percentage Present on treated section” value (2 days after treatment) was 2.5%. For the same compound, the “Percentage Present on untreated section” value (2 days after treatment) was 97.5%, the “Percentage Present on treated section” value (3 days after treatment) was 2.5% and the “Percentage Present on untreated section” value (3 days after treatment) was 97.5%. For the same compound, the “Percentage Present on treated section, Average” value was 4.2% and the “Percentage Present on untreated section, Average” value was 95.8%.

In the case of `CC(C)[C@@H]1CC[C@@H](C)C[C@H]1OC(=O)Nc1ccccc1`, the “Percentage Present on treated section” value (1 day after treatment) is reported as 2.5%, the “Percentage Present on untreated section” value (1 day after treatment) is reported as 97.5% and the “Percentage Present on treated section” value (2 days after treatment) is reported as 3.7%. The “Percentage Present on untreated section” value (2 days after treatment) was 96.3%, the “Percentage Present on treated section” value (3 days after treatment) was 2.5% and the “Percentage Present on untreated section” value (3 days after treatment) was 97.5%. The “Percentage Present on treated section, Average” value was 2.9% and the “Percentage Present on untreated section, Average” value was 97.1%.

For `CC(C)[C@@H]1CC[C@@H](C)C[C@H]1OC(=O)N1CCCC1`, the “Percentage Present on treated section” value (1 day after treatment) was 2.5%, the “Percentage Present on untreated section” value (1 day after treatment) was 97.5% and the “Percentage Present on treated section” value (2 days after treatment) was 7.5%. The “Percentage Present on untreated section” value (2 days after treatment) was 92.5%, the “Percentage Present on treated section” value (3 days after treatment) was 12.7% and the “Percentage Present on untreated section” value (3 days after treatment) was 87.3%. For the same compound, the “Percentage Present on treated section, Average” value was 7.6% and the “Percentage Present on untreated section, Average” value was 92.4%.

In the case of `CC(C)[C@@H]1CC[C@@H](C)C[C@H]1OC(=O)N1CCOCC1`, the “Percentage Present on treated section” value (1 day after treatment) is reported as 17.5%, the “Percentage Present on untreated section” value (1 day after treatment) is reported as 82.5% and the “Percentage Present on treated section” value (2 days after treatment) is reported as 17.5%. The “Percentage Present on untreated section” value (2 days after treatment) was 82.5%, the “Percentage Present on treated section” value (3 days after treatment) was 25.0% and the “Percentage Present on untreated section” value (3 days after treatment) was 75.0%. For the same compound, the “Percentage Present on treated section, Average” value was 20.0% and the “Percentage Present on untreated section, Average” value was 80.0%.

With `CC(C)[C@@H]1CC[C@@H](C)C[C@H]1OC(=O)N1CCCCC1` the “Percentage Present on treated section” value (1 day after treatment) was 10.0%, the “Percentage Present on untreated section” value (1 day after treatment) was 90.0% and the “Percentage Present on treated section” value (2 days after treatment) was 11.3%. For the same compound, the “Percentage Present on untreated section” value (2 days after treatment) was 88.7%, the “Percentage Present on treated section” value (3 days after treatment) was 3.9% and the “Percentage Present on untreated section” value (3 days after treatment) was 96.1%. For the same compound, the “Percentage Present on treated section, Average” value was 8.4% and the “Percentage Present on untreated section, Average” value was 91.6%.

In the case of `CC(C)CNC(=O)O[C@@H]1C[C@H](C)CC[C@H]1C(C)C`, the “Percentage Present on treated section” value (1 day after treatment) is reported as 31.3%, the “Percentage Present on untreated section” value (1 day after treatment) is reported as 68.7% and the “Percentage Present on treated section” value (2 days after treatment) is reported as 17.5%. For the same compound, the “Percentage Present on untreated section” value (2 days after treatment) was 82.5%, the “Percentage Present on treated section” value (3 days after treatment) was 16.3% and the “Percentage Present on untreated section” value (3 days after treatment) was 83.7%. The “Percentage Present on treated section, Average” value was 21.7% and the “Percentage Present on untreated section, Average” value was 78.3%.

With `CCCCNC(=O)O[C@@H]1C[C@H](C)CC[C@H]1C(C)C` the “Percentage Present on treated section” value (1 day after treatment) was 6.3%, the “Percentage Present on untreated section” value (1 day after treatment) was 93.7% and the “Percentage Present on treated section” value (2 days after treatment) was 17.5%. The “Percentage Present on untreated section” value (2 days after treatment) was 82.5%, the “Percentage Present on treated section” value (3 days after treatment) was 7.5% and the “Percentage Present on untreated section” value (3 days after treatment) was 92.5%. For the same compound, the “Percentage Present on treated section, Average” value was 10.5% and the “Percentage Present on untreated section, Average” value was 89.6%.

`COC(=O)CCNC(=O)O[C@@H]1C[C@H](C)CC[C@H]1C(C)C` was tested, and the “Percentage Present on treated section” value (1 day after treatment) was 11.4%, the “Percentage Present on untreated section” value (1 day after treatment) was 88.6% and the “Percentage Present on treated section” value (2 days after treatment) was 2.5%. For the same compound, the “Percentage Present on untreated section” value (2 days after treatment) was 97.5%, the “Percentage Present on treated section” value (3 days after treatment) was 10.0% and the “Percentage Present on untreated section” value (3 days after treatment) was 90.0%. The “Percentage Present on treated section, Average” value was 8.0% and the “Percentage Present on untreated section, Average” value was 92.0%.

In the case of `CNC(=O)O[C@@H]1C[C@H](C)CC[C@H]1C(C)C` [Methyl-Carbamic Acid (−)-Menthyl Ester, Methyl-carbamic acid (−)-menthyl ester], the “Number of Cockroaches present, Treated Section” value [1] is reported as 0 (2×) and 3 and 1, the “Number of Cockroaches present, Untreated Section” value [1] is reported as 20 and 19 (2×) and 17 and the “Number of Cockroaches, Dead” value [1] is reported as 0 (3×) and 1. The “Number of Cockroaches present, Treated Section, Total of 4 replicates” value [1] was 4, the “Number of Cockroaches present, Untreated Section, Total of 4 replicates” value [1] was 75 and the “Number of Cockroaches, Dead, Total of 4 replicates” value [1] was 1. The “Number of Cockroaches present, Treated Section” value [2] was 1 (2×) and 0 (2×), the “Number of Cockroaches present, Untreated Section” value [2] was 19 (3×) and 20 and the “Number of Cockroaches, Dead” value [2] was 0 (3×) and 1. For the same compound, the “Number of Cockroaches present, Treated Section, Total of 4 replicates” value [2] was 2, the “Number of Cockroaches present, Untreated Section, Total of 4 replicates” value [2] was 77 and the “Number of Cockroaches, Dead, Total of 4 replicates” value [2] was 1. The “Number of Cockroaches present, Treated Section” value [3] was 0 (3×) and 1, the “Number of Cockroaches present, Untreated Section” value [3] was 20 (3×) and 19 and the “Number of Cockroaches, Dead” value [3] was 0. The “Number of Cockroaches present, Treated Section, Total of 4 replicates” value [3] was 1, the “Number of Cockroaches present, Untreated Section, Total of 4 replicates” value [3] was 79 and the “Number of Cockroaches, Dead, Total of 4 replicates” value [3] was 0.

With `CNC(=O)O[C@@H]1C[C@H](C)CC[C@H]1C(C)C` [drawing 13] the “Percentage Present on treated section” value (1 day after treatment) was 5.1%, the “Percentage Present on untreated section” value (1 day after treatment) was 94.9% and the “Percentage Present on treated section” value (2 days after treatment) was 2.5%. The “Percentage Present on untreated section” value (2 days after treatment) was 97.5%, the “Percentage Present on treated section” value (3 days after treatment) was 1.3% and the “Percentage Present on untreated section” value (3 days after treatment) was 98.7%. The “Percentage Present on treated section, Average” value was 3.0% and the “Percentage Present on untreated section, Average” value was 97.0%.
